Laboratory results from the NIST ThermoML archive (doi:10.1021/je060271a).

Conditions: 303.16 K, Liquid, Vibrating tube method

CCCC(=O)OCC(COC(=O)CCC)(COC(=O)CCC)COC(=O)CCC [pentaerythritol tetrabutyrate]
Conditions	mass density [kg/m3]
15938 kPa	1052.3
15972 kPa	1052.3
16014 kPa	1052.4
16048 kPa	1052.3
16090 kPa	1052.4
16125 kPa	1052.5
16167 kPa	1052.5
16209 kPa	1052.5
16244 kPa	1052.5
16286 kPa	1052.6
16323 kPa	1052.5
16366 kPa	1052.5
16409 kPa	1052.7
16446 kPa	1052.6
16489 kPa	1052.7
16526 kPa	1052.7
16571 kPa	1052.7
16616 kPa	1052.7
16654 kPa	1052.7
16700 kPa	1052.7
16739 kPa	1052.8
16786 kPa	1052.8
16833 kPa	1052.9
16872 kPa	1053
16906 kPa	1052.9
16947 kPa	1053
16988 kPa	1052.9
17023 kPa	1053
17065 kPa	1053
17100 kPa	1053
17142 kPa	1053
17185 kPa	1052.9
17221 kPa	1053
17265 kPa	1053.2
17301 kPa	1053.1
17346 kPa	1053.2
17383 kPa	1053.1
17428 kPa	1053.2
17464 kPa	1053.2
17508 kPa	1053.2
17552 kPa	1053.1
17588 kPa	1053.3
17632 kPa	1053.3
17669 kPa	1053.4
17713 kPa	1053.5
17758 kPa	1053.5
17796 kPa	1053.4
17840 kPa	1053.4
17887 kPa	1053.5
17924 kPa	1053.4
17970 kPa	1053.5
18009 kPa	1053.6
18056 kPa	1053.6
18094 kPa	1053.5
18141 kPa	1053.6
18187 kPa	1053.6
18226 kPa	1053.6
18275 kPa	1053.6
18315 kPa	1053.9
18363 kPa	1053.8
18405 kPa	1053.7
18448 kPa	1053.9
18497 kPa	1053.9
18546 kPa	1054
18588 kPa	1053.9
18638 kPa	1054
18681 kPa	1054.1
18732 kPa	1054
18784 kPa	1054
18828 kPa	1054.1
18881 kPa	1054.2
18917 kPa	1054
18955 kPa	1054
18996 kPa	1054.2
19030 kPa	1054.2
19063 kPa	1054.2
19103 kPa	1054.2
19136 kPa	1054.2
19176 kPa	1054.3
19209 kPa	1054.3
19248 kPa	1054.3
19288 kPa	1054.4
19321 kPa	1054.3
19361 kPa	1054.4
19395 kPa	1054.3
19436 kPa	1054.4
19477 kPa	1054.5
19512 kPa	1054.4
19553 kPa	1054.5
19587 kPa	1054.5
19629 kPa	1054.5
19665 kPa	1054.4
19707 kPa	1054.6
19741 kPa	1054.6
19783 kPa	1054.5
19825 kPa	1054.7
19861 kPa	1054.7
19904 kPa	1054.6
19940 kPa	1054.8
19985 kPa	1054.6
20021 kPa	1054.8
20064 kPa	1054.8
20101 kPa	1054.9
20144 kPa	1054.8
20189 kPa	1054.9
20226 kPa	1054.9
20270 kPa	1054.9
20308 kPa	1054.8
20479 kPa	1055
20525 kPa	1054.9
20562 kPa	1055.1
20609 kPa	1055.1
20648 kPa	1055.1
20695 kPa	1055.1
20735 kPa	1055.3
20783 kPa	1055.2
20823 kPa	1055.3
20871 kPa	1055.3
20911 kPa	1055.3
20958 kPa	1055.2
20997 kPa	1055.3
21046 kPa	1055.4
21087 kPa	1055.4
21317 kPa	1055.5
21366 kPa	1055.5
21458 kPa	1055.5
21510 kPa	1055.6
21552 kPa	1055.6
21603 kPa	1055.7
21646 kPa	1055.7
21698 kPa	1055.6
21749 kPa	1055.8
21792 kPa	1055.7
21845 kPa	1055.9
21889 kPa	1055.9
21942 kPa	1055.8
21986 kPa	1055.9
22040 kPa	1055.9
22093 kPa	1056
22138 kPa	1056
22194 kPa	1056
22240 kPa	1056.1
22297 kPa	1056.1
22344 kPa	1056.2
22399 kPa	1056.2
22444 kPa	1056.1
22501 kPa	1056.1
22549 kPa	1056.2
22606 kPa	1056.2
22664 kPa	1056.3
22714 kPa	1056.3
22776 kPa	1056.4
22829 kPa	1056.3
22885 kPa	1056.5
22917 kPa	1056.4
22959 kPa	1056.5
22993 kPa	1056.4
23026 kPa	1056.4
23065 kPa	1056.6
23104 kPa	1056.5
23137 kPa	1056.6
23177 kPa	1056.6
23211 kPa	1056.7
23251 kPa	1056.7
23285 kPa	1056.7
23325 kPa	1056.7
23359 kPa	1056.7
23399 kPa	1056.7
23440 kPa	1056.7
23475 kPa	1056.8
23516 kPa	1056.9
23551 kPa	1056.9
23593 kPa	1056.9
23628 kPa	1056.8
23670 kPa	1056.9
23705 kPa	1056.8
23747 kPa	1056.8
23782 kPa	1057
23825 kPa	1057
23860 kPa	1057
23902 kPa	1057.1
23946 kPa	1057.1
23981 kPa	1057
24023 kPa	1057.1
24066 kPa	1057
24101 kPa	1057.2
24145 kPa	1057.1
24182 kPa	1057.3
24225 kPa	1057.1
24269 kPa	1057.2
24306 kPa	1057.2
24350 kPa	1057.3
24387 kPa	1057.4
24432 kPa	1057.3
24470 kPa	1057.3
24515 kPa	1057.5
24560 kPa	1057.4
24597 kPa	1057.4
24642 kPa	1057.4
24680 kPa	1057.5
24726 kPa	1057.6
24772 kPa	1057.6
24810 kPa	1057.5
24858 kPa	1057.5
24897 kPa	1057.6
24944 kPa	1057.7
24991 kPa	1057.6
25031 kPa	1057.5
25070 kPa	1057.7
25117 kPa	1057.7
25165 kPa	1057.7
25204 kPa	1057.8
25252 kPa	1057.8
25292 kPa	1057.9
25340 kPa	1057.9
25389 kPa	1058
25431 kPa	1057.9
25481 kPa	1057.9
25523 kPa	1058
25574 kPa	1058.1
25618 kPa	1058.1
25669 kPa	1058
25712 kPa	1058.1
25765 kPa	1058.1
25816 kPa	1058.1
25851 kPa	1058.2
25889 kPa	1058.2
25926 kPa	1058.1
25957 kPa	1058
25995 kPa	1058.2
26027 kPa	1058.1
26066 kPa	1058.3
26106 kPa	1058.3
26139 kPa	1058.4
26171 kPa	1058.3
26210 kPa	1058.3
26243 kPa	1058.4
26282 kPa	1058.4
26320 kPa	1058.4
26352 kPa	1058.5
26392 kPa	1058.5
26430 kPa	1058.3
26463 kPa	1058.4
26504 kPa	1058.6
26538 kPa	1058.6
26574 kPa	1058.6
26615 kPa	1058.5
26648 kPa	1058.6
26688 kPa	1058.6
26728 kPa	1058.6
26761 kPa	1058.6
26802 kPa	1058.6
26836 kPa	1058.7
26876 kPa	1058.8
26918 kPa	1058.7
26952 kPa	1058.7
26994 kPa	1058.8
27028 kPa	1058.8
27070 kPa	1058.9
27110 kPa	1058.8
27145 kPa	1058.8
27188 kPa	1058.8
27223 kPa	1059.1
27266 kPa	1058.9
27301 kPa	1059
27343 kPa	1058.9
27385 kPa	1059.2
27420 kPa	1059
27464 kPa	1059
27499 kPa	1059
27542 kPa	1059.1
27585 kPa	1059.1
27622 kPa	1059.2
27666 kPa	1059.2
27702 kPa	1059.2
27747 kPa	1059.1
27784 kPa	1059.3
27828 kPa	1059.2
27865 kPa	1059.3
27909 kPa	1059.4
27953 kPa	1059.4
27991 kPa	1059.3
28035 kPa	1059.4
28079 kPa	1059.4
28117 kPa	1059.3
28162 kPa	1059.4
28200 kPa	1059.5
28244 kPa	1059.4
28290 kPa	1059.5
28328 kPa	1059.5
28374 kPa	1059.6
28419 kPa	1059.7
